From patent US11903912B2, “Composition for preventing and treating breast cancer including selenopsammaplin A as active ingredients” (Seoul National University R & DB Foundation, priority 2019, dated 2024)
pIC50: −log10 of the molar value.

What was measured:
[1] = system: EMT markers in MDA-MB-231 cells; test: Protein expression of EMT markers, western blot; assay type: cell-based, human; settings: MDA-MB-231, western blot, FIGS. 7E and 7F
Method: The triple-negative breast cancer cell line MDA-MB-231 was spread at a concentration of 2×10^6 cells/well on a DMEM medium containing 10% FBS in a 6-well plate, cultured at 37° C. for 24 hours under a 5% CO2 condition, and then washed twice with phosphate-buffered saline (PBS). Attached cells were recovered and washed twice with PBS, and then boiling 2× sample loading buffer (250 mM Tris-HCl (pH 6.8), 4% SDS, 10% glycerol, 0.006% bromophenol blue, 2% β-mercaptoethanol, 50 mM sodium fluoride, and 5 mM sodium orthovanadate) was added thereto to disrupt the cells and the cells were left at 100° C. for 10 minutes. After cooling, the cells were stored at […] and […] at 37° C. immediately before use in protein quantification and electrophoresis. 10 μg of proteins were electrophoresed at 100 V for 2 hours using a 12% SDS-polyacrylamide gel (#456-1036, Bio-Rad, Hercules, Calif.). The separated proteins were transferred to a PVDF membrane (ISEQ15150, Millipore, Bedford, Mass.) at 100 V for 1 hour, and a blocking buffer (5% non-fat dry milk in TBS containing 0.1% Tween-20 (TBST)) was injected thereinto to culture the proteins at room temperature for 1 hour. After washing three times with TBST for 5 minutes, the corresponding single antibody was diluted with 5% non-fat dry milk in TBST and allowed to react with the membrane at 4° C. for 18 hours. The membrane [ISEQ 1S150, Millipore, Bedford, Mass.] was washed three times with TBST for 10 minutes, and then horseradish peroxidase (HRP)-conjugated secondary antibodies were diluted with 2.5% non-fat dry milk in TBST at a ratio of 1:2,000 and allowed to react with the membrane at room temperature for 2 hours. After washing three times with TBST for 10 minutes, the reaction product was treated with a chemiluminescent reagent (LabFrontier, Suwon, Korea) to confirm the protein expression levels of E-cadherin, N-cadherin, vimentin, and beta-actin (Fuji Film Corp., Japan) using LAS-4000 (Fuji Film Corp., Japan), and the results thereof are illustrated in FIG. 7E. The proteins were quantified using ImageJ software, which are illustrated in FIG. 7F.

[2] = system: breast cancer metastasis; test: Breast cancer metastasis to organs in animal model, IVIS; assay type: in vivo, nude BALB/c mice; settings: 5 mg/kg, 15 mg/kg
Description: Organs such as the lungs, liver, spleen, and kidneys were extracted from the animal model of Example 8, and the degrees of cancer metastasis in the control and the administered groups were indirectly photographed using IVIS (PerkinElmer) and are illustrated in FIG. 9.

[3] = system: MDA-MB-231 cells; test: Cancer cell invasion (Transwell) test; assay type: cell-based, human; settings: MDA-MB-231, Transwell, 50-400 nM, 24 hours
Method: The triple-negative breast cancer cell line MDA-MB-231 was spread at a concentration of 1×10^6 cells/well on a DMEM medium containing 10% FBS in a Transwell plate, cultured at 37° C. for 24 hours under a 5% CO2 condition, and then washed once with phosphate-buffered saline (PBS). Subsequently, the cells were treated with 50-400 nM compound 2 and 400 nM psammaplin A, and then cultured for 24 hours. After washing once with PBS, a membrane was attached to a slide glass, the degree of cell invasion was photographed using a microscope, and the results thereof are illustrated in FIG. 6A. The degree of invasion compared to a control using ImageJ software is illustrated in FIG. 6B.

[4] = system: SK-HEP-1 human liver cancer cells; test: SRB cytotoxicity test, SK-HEP-1; assay type: cell-based; settings: SRB assay, cultured 3 days
Method: A cytotoxicity test was performed using synthesized selenopsammaplin A and derivatives thereof (Lee S K et al […] Chem Biol Interact 115:215-28).
The cytotoxicity test was performed on a total of five representative cancer cell lines. The cytotoxicity of each compound was measured using an SRB assay method (human lung cancer cells, A549; human colon cancer cells, HCT116; human breast cancer cells, MDA-MB231; human liver cancer cells, SK-HEP-1; human gastric cancer cells, SNU638).
Each cell line was sub-cultured once or twice using Roswell Park Memorial Institute (RPMI) medium 1640 (RPMI 1640) or Dulbecco's Modified Eagle's Medium (DMEM) containing 10% fetal bovine serum (FBS) inactivated by heat, 100 units/mL of penicillin, 100 μg/mL of streptomycin, and 250 ng/mL of amphotericin B at 37° C. for 1 week under a 5% CO2 condition. All cells were […] in liquid nitrogen, and then passaged three or more times to be used in the experiment. The effects of compounds on cell growth were measured using a sulforhodamine B (SRB) method (Lee et al (1998) Chemico-Biol Interact 115:215-228).
Specifically, each human cancer cell line used in the present invention was sub-cultured in an RPMI medium containing 10% FBS, 1% PSF, and the like, and 10 μl of a sample dissolved in 10% DMSO and 190 μl (4-5×10^4 cells/ml) of the cell suspension were added to each well of a 96-well plate and cultured for 3 days. 190 μl of the cell suspension was added to at least 16 wells and cultured for 30 minutes, and used as a zero-day control. The cultured cells were fixed with 10% trichloroacetic acid (TCA) and then stained with an SRB solution, and the staining solution was dissolved with 10 mM Tris-base, and then absorbance at 515 nm was measured. Using the case of culturing in 10% DMSO as a control, cell viability according to each test material treatment was measured using Equation 1 below. Etoposide was used as a positive control. % Viability=(OD(sample)−OD(0-day))/(OD(10% DMSO)−OD(0-day))×100 [Equation 1]
Assuming that a control not-treated with the sample was set at 100%, the values of sample-treated groups were expressed as percentage with respect to the control, and each test material treatment results were obtained as the mean±SEM of two or three tests. The IC50 value is the concentration of the test material for a 50% survival rate.

`O=C(NCC[Se][Se]CCNC(=O)/C(Cc1ccccc1)=N/O)/C(Cc1ccccc1)=N/O` [Compound 2, (2E,2′E)-N,N′-(diselenediylbis(ethane-2,1-diyl))bis(2-(hydroxyimino)-3-phenylpropanamide)] was tested, and the “protein expression of E-cadherin” value [1] was “increased”, the “protein expression of N-cadherin” value [1] was “suppressed” and the “protein expression of ZEB1” value [1] was “suppressed”. For the same compound, the “protein expression of vimentin” value [1] was “suppressed”, the “degree of metastasis to each organ (lungs, liver, spleen, kidneys)” value [2] was “significantly reduced” and the “degree of metastasis to the lungs” value [2] was “greatly reduced”. For the same compound, the “invasion of breast cancer cells” value [3] was “effectively suppressed” and the pIC50 [4] was 6.92.
